Tested on: HSV-1 K26-GFP
Assay: microbe, parasite or virus in culture
Assay type: cell-based, HSV-1 (F strain)
Settings: Human alphaherpesvirus 1, Vero, 24 h; for inhibition at 20 µM: read-out: percentage inhibition at the highest concentration tested (20 µM)

SMILES	EC50 [µM]	inhibition at 20 µM [%]
COC(=O)OCOc1c2n(ccc1=O)N([C@@H]1c3ccccc3SCc3c1ccc(F)c3F)[C@@H]1COCCN1C2=O [Baloxavir marboxil, reference compound]	> 20	13.7
O=C1c2c(O)c(=O)ccn2N(Cc2ccc(-c3ccc(F)cc3)cc2)[C@@H]2COCCN12 [Compound 29, (R)-12-((4'-fluoro-[1,1'-biphenyl]-4-yl)methyl)-7-hydroxy-3,4,12,12a-tefrahydro-1H-[1,4]oxazino[3,4-c]pyrido[2,1-f][1,2,4]triazine-6,8-dione]	4 ± 1.3	
CC(C)c1ccc(O)c(O)c(=O)c1 [β-thujaplicinol, reference compound]	3.9 ± 0.9	
O=C1c2c(O)c(=O)ccn2N(Cc2ccc(-c3ccc(OC(F)(F)F)cc3)cc2)[C@@H]2COCCN12 [Compound 32, (R)-7-hydroxy-12-((4'-(trifluoromethoxy)-[1,1'-biphenyl]-4-yl)methyl)-3,4,12,12a-tetrahydro-1H-[1,4]oxazino[3,4-c]pyrido[2,1-f][1,2,4]triazine-6,8-dione]	8.9 ± 1	
Nc1nc2c(ncn2COCCO)c(=O)[nH]1 [Acyclovir (ACV), Acyclovir, reference compound]	0.68 ± 0.11	
O=C1c2c(O)c(=O)ccn2N(Cc2ccc(C(F)(F)F)cc2)[C@@H]2COCCN12 [Compound 7, (R)-7-hydroxy-12-(4-(trifluoromethyl)benzyl)-3,4,12,12a-tetrahydro-1H-[1,4]oxazino[3,4-c]pyrido[2,1-f][1,2,4]triazine-6,8-dione]	3.4 ± 2.7	
O=C1c2c(O)c(=O)ccn2N(Cc2ccc(Cl)c(F)c2)[C@@H]2COCCN12 [Compound 10, (R)-12-(4-chloro-3-fluorobenzyl)-7-hydroxy-3,4,12,12a-tetrahydro-1H-[1,4]oxazino[3,4-c]pyrido[2,1-f][1,2,4]triazine-6,8-dione]	10.3 ± 0.9	
O=C1c2c(O)c(=O)ccn2N([C@@H]2c3ccccc3SCc3c2ccc(F)c3F)[C@@H]2COCCN12 [Baloxavir acid, reference compound]	> 20	40.7
O=C1c2c(O)c(=O)ccn2N(Cc2ccc(-c3ccccc3)cc2)[C@@H]2COCCN12 [Compound 19, (R)-12-([1,1'-biphenyl]-4-yimethyl)-7-hydroxy-3,4,12,12a-tetrahydro-1H-[1,4]oxazino[3,4-c]pyrido[2,1-f][1,2,4]triazine-6,8-dione]	2.8 ± 1.1	
O=C1c2c(O)c(=O)ccn2N(Cc2ccc(-c3ccco3)cc2)[C@@H]2COCCN12 [Compound 18, (R)-12-(4-(furan-2-yl)benzyl)-7-hydroxy-3,4,12,12a-tetrahydro-1H-[1,4]oxazino[3,4-c]pyrido[2,1-f][1,2,4]triazine-6,8-dione]	> 20	48.5

From patent publication EP4818175A1, “NOVEL ANTIVIRAL COMPOUNDS” (Consejo Superior de Investigaciones Científicas (CSIC), priority 2025, dated 2026)
